Source: ChEMBL document CHEMBL4321836, “Discovery of BAY-298 and BAY-899: Tetrahydro-1,6-naphthyridine-Based, Potent, and Selective Antagonists of the Luteinizing Hormone Receptor Which Reduce Sex Hormone Levels in Vivo” (J Med Chem, 2019)

Experiments:
[1] = molecular target: T1, Lutropin-choriogonadotropic hormone receptor (Homo sapiens, UniProt P22888); experiment: (§1) Negative allosteric modulation of human luteinizing hormone receptor assessed as Emax for Org 43553-induced agonist activity at 0.84 nM to 17 uM preincubated for 20 mins followed by 100 times EC80 of agonist addition and measured after 60 mins by cell based TR-FRET assay relative to control
T1 sequence (P22888 whole entry): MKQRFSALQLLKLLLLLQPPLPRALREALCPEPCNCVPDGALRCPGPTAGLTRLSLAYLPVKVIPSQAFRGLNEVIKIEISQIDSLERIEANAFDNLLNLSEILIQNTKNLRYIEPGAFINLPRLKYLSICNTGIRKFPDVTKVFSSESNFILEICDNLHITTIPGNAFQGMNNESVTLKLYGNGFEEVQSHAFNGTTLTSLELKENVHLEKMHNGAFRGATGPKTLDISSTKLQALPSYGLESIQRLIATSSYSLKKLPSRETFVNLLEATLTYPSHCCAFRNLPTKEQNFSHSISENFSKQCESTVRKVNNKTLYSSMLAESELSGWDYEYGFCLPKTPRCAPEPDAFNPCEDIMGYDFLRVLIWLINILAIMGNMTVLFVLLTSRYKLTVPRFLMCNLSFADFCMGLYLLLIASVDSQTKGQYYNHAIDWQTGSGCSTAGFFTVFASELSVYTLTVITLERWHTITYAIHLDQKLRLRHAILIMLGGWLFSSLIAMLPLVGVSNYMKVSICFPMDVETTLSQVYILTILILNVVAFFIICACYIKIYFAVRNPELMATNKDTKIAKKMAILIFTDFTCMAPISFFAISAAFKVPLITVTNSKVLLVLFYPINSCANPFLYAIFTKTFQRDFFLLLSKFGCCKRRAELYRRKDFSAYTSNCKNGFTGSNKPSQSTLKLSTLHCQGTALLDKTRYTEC

[2] = test system: Rattus norvegicus; experiment: Downregulation of estradiol level in proestrus staged-female rat serum at 36 mg/kg, po administered once daily for 8 days and measured by radioimmunoassay method (reference value: 125 pmol/L); type: functional
[3] = test system: Rattus norvegicus; experiment: Downregulation of human luteinizing hormone-induced RUNX1 mRNA expression in cetrorelix-treated iv dosed female rat after 2 hrs by Taqman probe based RT-PCR analysis; type: functional, organism-based
[4] = molecular target: T1, Lutropin-choriogonadotropic hormone receptor; experiment: (§2) Negative allosteric modulation of human luteinizing hormone receptor assessed as Emax for Org 43553-induced agonist activity at 0.84 nM to 17 uM preincubated for 20 mins followed by 4 times EC80 of agonist addition and measured after 60 mins by cell based TR-FRET assay relative to control
[5] = molecular target: T1, Lutropin-choriogonadotropic hormone receptor; experiment: Agonist activity at human luteinizing hormone receptor incubated for 60 mins by cell based TR-FRET assay
[6] = test system: Rattus norvegicus; experiment: Downregulation of human luteinizing hormone-induced progesterone expression in plasma of cetrorelix-treated female rat at 27 mg/kg, iv after 2 hrs by radioimmunoassay method (reference value: 243 nM); type: functional
[7] = molecular target: T1, Lutropin-choriogonadotropic hormone receptor; experiment: as §1, with “reduction in glycoprotein human luteinizing hormone-induced” for “Emax for Org 43553-induced”, “activity” for “activity at 0.84 nM to 17 uM”, “1” for “100”
[8] = test system: Rattus norvegicus; experiment: Downregulation of estradiol level in proestrus staged-female rat serum at 4.5 mg/kg, po administered once daily for 8 days and measured by radioimmunoassay method (reference value: 125 pmol/L); type: functional
[9] = molecular target: T1, Lutropin-choriogonadotropic hormone receptor; experiment: (§3) Negative allosteric modulation of human luteinizing hormone receptor assessed as reduction in Org 43553-induced agonist activity preincubated for 20 mins followed by 16 times EC80 of agonist addition and measured after 60 mins by cell based TR-FRET assay relative to control
[10] = test system: Rattus norvegicus; experiment: Downregulation of estradiol level in po dosed proestrus staged-female rat serum administered once daily for 8 days and measured by radioimmunoassay method; type: functional, organism-based
[11] = Plasma concentration in female rat at 4.5 to 72 mg/kg, po administered once daily for 8 days and measured on day 8; type: ADME, organism-based
[12] = molecular target: T1, Lutropin-choriogonadotropic hormone receptor; experiment: (§4) Negative allosteric modulation of human luteinizing hormone receptor assessed as Emax for Org 43553-induced agonist activity at 0.84 nM to 17 uM preincubated for 20 mins followed by 16 times EC80 of agonist addition and measured after 60 mins by cell based TR-FRET assay relative to control; details: at 0.00084 to 17 µM
[13] = test system: Rattus norvegicus; experiment: Reversal of human luteinizing hormone-induced suppression of aromatase mRNA expression in cetrorelix-treated iv dosed female rat after 2 hrs by Taqman probe based RT-PCR analysis; type: functional, organism-based
[14] = test system: Rattus norvegicus; experiment: Effect on folliculo-genesis in 4 day cycle of po dosed normally cycling female rat assessed as induction of cycle arrest in metestrus stage by observing vaginal smears administered once daily for 8 days and measured for 2 cycle-stage; type: functional, organism-based
[15] = test system: Rattus norvegicus; experiment: Downregulation of estradiol level in proestrus staged-female rat serum at 9 mg/kg, po administered once daily for 8 days and measured by radioimmunoassay method (reference value: 125 pmol/L); type: functional
[16] = molecular target: T1, Lutropin-choriogonadotropic hormone receptor; experiment: as §3, with “glycoprotein human luteinizing hormone-induced” for “Org 43553-induced”, “100” for “16”
[17] = test system: Rattus norvegicus; experiment: Downregulation of human luteinizing hormone-induced progesterone expression in plasma of cetrorelix-treated female rat at 14 mg/kg, iv after 2 hrs by radioimmunoassay method (reference value: 243 nM); type: functional
[18] = molecular target: T1, Lutropin-choriogonadotropic hormone receptor; experiment: as §1, with “glycoprotein human luteinizing hormone-induced” for “Org 43553-induced”, “10” for “100”
[19] = molecular target: T1, Lutropin-choriogonadotropic hormone receptor; experiment: Negative allosteric modulation of human luteinizing hormone receptor assessed as reduction in Org 43553-induced agonist activity preincubated for 20 mins followed by 100 times EC80 of agonist addition and measured after 60 mins by cell based TR-FRET assay relative to control
[20] = molecular target: T1, Lutropin-choriogonadotropic hormone receptor; experiment: as §2, with “glycoprotein human luteinizing hormone-induced” for “Org 43553-induced”
[21] = molecular target: T1, Lutropin-choriogonadotropic hormone receptor; experiment: as §4, with “glycoprotein human luteinizing hormone-induced” for “Org 43553-induced”; details: at 0.00084 to 17 µM
[22] = Free plasma concentration in female rat at 4.5 to 72 mg/kg, po administered once daily for 8 days; type: ADME, organism-based; details: in vivo, 192 h
[23] = test system: Rattus norvegicus; experiment: Downregulation of human luteinizing hormone-induced progesterone expression in plasma of cetrorelix-treated female rat at 4.5 mg/kg, iv after 2 hrs by radioimmunoassay method (reference value: 243 nM); type: functional
[24] = test system: Rattus norvegicus; experiment: Downregulation of 0.3 ug human luteinizing hormone-induced testosterone expression in plasma of cetrorelix-treated male rat at 14 mg/kg, iv after 2 hrs by radioimmunoassay method (reference value: 33.4 nM); type: functional

Emax [1]: 93% | Emax [4]: 102% | EC50 [5]: > 16 µM | IC50 [7]: 0.097 µM | IC50 [9]: 1.7 µM | concentration at 192 h [11]: 4 to 39 µM | Emax [12]: 102% | Activity [13]: Dose-dependent effect | IC50 [16]: 2.5 µM | Emax [18]: 106% | IC50 [19]: 1.5 µM | Emax [20]: 99% | Emax [21]: 109% | Cp(f) [22]: 0.024 µM
Structure (SMILES): O=C(Nc1ccc(Oc2ccc(F)cc2)cc1)N1CCc2ncccc2[C@@H]1c1ccc(Cl)cc1
Activity [2]: 48 pmol/L | Activity [3]: Dose-dependent effect | Activity [6]: 50 nM | Activity [8]: 118 pmol/L | Activity [10]: Dose-dependent effect | Activity [14]: Dose-dependent effect | Activity [15]: 80 pmol/L | Activity [17]: 51 nM | Activity [23]: 76 nM | Activity [24]: 12.6 nM
